# Results published in patent US20080009418A1, “Selective Inhibitors” (Alchemia LTD., priority 2004, published 2008).
# Experiments:
# [1] = target: T1, Human δ-opioid (DOP) (Homo sapiens, UniProt P41143); assay: Radioligand binding, human δ-opioid (DOP) membranes, FlashPlate, [3H]-Bremazocine; settings: compound at 10 μM; [3H]-Bremazocine
# T1 construct: purchased Perkin Elmer Biosignal
# In short: (§1)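 Cloned human receptor membranes were coated onto FlashPlate wells and incubated with radioligand and compound (added from a 0.5 mM DMSO daughter plate) for 1 hour at room temperature in the dark. Scintillation counting gave percent inhibition, with DMSO defining total and reference ligand defining non-specific binding.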
# [2] = target: T2, Human κ-Opioid (KOP) (Homo sapiens, UniProt P41145); assay: Radioligand binding, human κ-opioid (KOP) membranes, filtration, [3H]-Diprenorphine; settings: compound at 10 μM; [3H]-Diprenorphine
# T2 construct: purchased Perkin Elmer Biosignal
# In short: (§2)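 Membranes from cloned human receptors were incubated with compound and radioligand for 1 hour at room temperature. Bound ligand was collected on 0.3% PEI-soaked filters, washed with cold 50 mM Tris-HCl pH 7.4, and counted by scintillation. Percent inhibition was computed against DMSO totals and reference-ligand nonspecific wells.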
# [3] = target: T3, Human Melanocortin (MC3) (Homo sapiens, UniProt P41968); assay: Radioligand binding, human melanocortin MC3 membranes, FlashPlate, [125I]-NDP-αMSH; settings: compound at 10 μM; [125I]-NDP-αMSH
# T3 construct: purchased Perkin Elmer Biosignal
# In short: as §1
# [4] = target: T4, Human Melanocortin (MC4) (Homo sapiens, UniProt P32245); assay: Radioligand binding, human melanocortin MC4 membranes, FlashPlate, [125I]-NDP-αMSH; settings: compound at 10 μM; [125I]-NDP-αMSH
# T4 construct: purchased Perkin Elmer Biosignal
# In short: as §1
# [5] = target: T5, Human melanocortin (MC5) (Homo sapiens, UniProt P33032); assay: Radioligand binding, human melanocortin MC5 membranes, FlashPlate, [125I]-NDP-αMSH; settings: compound at 10 μM; [125I]-NDP-αMSH
# T5 construct: purchased Perkin Elmer Biosignal
# In short: as §1
# [6] = target: T6, Human melanin-concentrating hormone (MCH1) (Homo sapiens, UniProt Q99705); assay: Radioligand binding, human melanin-concentrating hormone MCH1 membranes, FlashPlate, [125I]-S36057; settings: compound at 10 μM; [125I]-S36057
# T6 construct: purchased Perkin Elmer Biosignal
# In short: as §1
# [7] = target: T7, Human μ-opioid (MOP) (Homo sapiens, UniProt P35372); assay: Radioligand binding, human μ-opioid (MOP) membranes, FlashPlate, [3H]-Naloxone; settings: compound at 10 μM; [3H]-Naloxone
# T7 construct: purchased Perkin Elmer Biosignal
# In short: as §1
# [8] = target: T8, Human neurokinin (NK1) (Homo sapiens, UniProt P25103); assay: Radioligand binding, human neurokinin NK1 membranes, filtration, [125I]-Substance P; settings: compound at 10 μM; [125I]-Substance P
# T8 construct: purchased Perkin Elmer Biosignal
# In short: as §2
# [9] = target: T9, Human neuropeptide Y (NPY-Y1) (Homo sapiens, UniProt P25929); assay: Radioligand binding, human neuropeptide Y NPY-Y1 membranes, FlashPlate, [125I]-PYY; settings: compound at 10 μM; [125I]-PYY
# T9 construct: purchased Perkin Elmer Biosignal
# T9 sequence (P25929 1-384): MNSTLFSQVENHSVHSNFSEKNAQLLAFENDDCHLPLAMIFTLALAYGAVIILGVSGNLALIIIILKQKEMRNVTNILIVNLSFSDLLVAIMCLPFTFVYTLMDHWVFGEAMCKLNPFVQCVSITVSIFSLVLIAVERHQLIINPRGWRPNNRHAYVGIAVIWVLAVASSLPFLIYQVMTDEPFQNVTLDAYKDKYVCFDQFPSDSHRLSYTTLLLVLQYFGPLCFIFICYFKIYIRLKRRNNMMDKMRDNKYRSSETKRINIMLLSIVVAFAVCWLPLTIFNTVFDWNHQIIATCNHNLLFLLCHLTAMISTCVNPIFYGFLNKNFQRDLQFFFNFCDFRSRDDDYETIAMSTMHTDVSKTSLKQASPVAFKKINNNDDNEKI
# In short: as §1
# [10] = target: T10, Human opioid (ORL1) (Homo sapiens, UniProt P41146); assay: Radioligand binding, human opioid ORL1 membranes, FlashPlate, [125I]-Nociceptin; settings: compound at 10 μM; [125I]-Nociceptin
# T10 construct: purchased Perkin Elmer Biosignal
# In short: as §1
# [11] = target: T11, Mouse urotensin (mUR2) (Mus musculus, UniProt Q8VIH9); assay: Radioligand binding, mouse urotensin mUR2 membranes, FlashPlate, [125I]-Urotensin II; settings: compound at 10 μM; [125I]-Urotensin II
# T11 construct: purchased Perkin Elmer Biosignal
# T11 sequence (Q8VIH9 1-385): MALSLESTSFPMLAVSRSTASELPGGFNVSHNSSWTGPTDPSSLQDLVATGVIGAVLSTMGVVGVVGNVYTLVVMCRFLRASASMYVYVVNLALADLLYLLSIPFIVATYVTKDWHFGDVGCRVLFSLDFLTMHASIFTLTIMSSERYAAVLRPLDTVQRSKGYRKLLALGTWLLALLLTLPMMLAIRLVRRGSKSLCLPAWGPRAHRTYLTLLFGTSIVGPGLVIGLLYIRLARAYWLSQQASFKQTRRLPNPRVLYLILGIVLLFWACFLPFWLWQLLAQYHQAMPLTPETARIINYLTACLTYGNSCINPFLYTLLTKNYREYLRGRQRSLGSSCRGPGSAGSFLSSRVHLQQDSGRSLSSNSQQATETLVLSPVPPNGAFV
# In short: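 Cloned mouse urotensin (mUR2) receptor membranes from Perkin Elmer Biosignal were immobilized in FlashPlate microplates using a proprietary coating. Each well got 19.5 μl buffer, then 0.5 μl of DMSO, reference ligand, or compound. Adding 5 μl of [125I]-Urotensin II, diluted to 5× final concentration in binding buffer, started binding. Plates were sealed with TopSeal-A and incubated 1 hour at room temperature in the dark. Wells were counted for 30 seconds each on a TopCount after a 60-second delay, and percentage inhibition was calculated.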
# T4 sequence (P32245 whole entry): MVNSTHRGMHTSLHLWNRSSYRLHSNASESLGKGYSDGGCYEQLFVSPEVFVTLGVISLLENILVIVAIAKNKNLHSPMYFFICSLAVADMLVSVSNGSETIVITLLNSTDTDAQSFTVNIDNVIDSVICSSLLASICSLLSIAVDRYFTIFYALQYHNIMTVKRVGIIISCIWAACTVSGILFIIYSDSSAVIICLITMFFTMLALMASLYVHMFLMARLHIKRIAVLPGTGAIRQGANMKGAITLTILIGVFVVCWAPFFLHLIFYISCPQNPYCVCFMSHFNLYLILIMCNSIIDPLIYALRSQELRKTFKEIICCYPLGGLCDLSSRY
# T7 sequence (P35372 whole entry): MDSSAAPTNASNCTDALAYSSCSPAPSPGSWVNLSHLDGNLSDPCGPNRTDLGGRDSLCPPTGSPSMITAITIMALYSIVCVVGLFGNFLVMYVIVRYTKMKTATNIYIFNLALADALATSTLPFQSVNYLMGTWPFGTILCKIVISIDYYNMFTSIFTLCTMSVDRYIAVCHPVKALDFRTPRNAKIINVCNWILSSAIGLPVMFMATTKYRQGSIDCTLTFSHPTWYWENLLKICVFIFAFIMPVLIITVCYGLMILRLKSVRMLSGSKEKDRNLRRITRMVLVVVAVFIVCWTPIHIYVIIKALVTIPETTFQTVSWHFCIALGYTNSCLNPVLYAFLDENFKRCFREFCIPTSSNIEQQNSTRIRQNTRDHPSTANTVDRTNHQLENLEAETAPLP
# T6 sequence (Q99705 whole entry): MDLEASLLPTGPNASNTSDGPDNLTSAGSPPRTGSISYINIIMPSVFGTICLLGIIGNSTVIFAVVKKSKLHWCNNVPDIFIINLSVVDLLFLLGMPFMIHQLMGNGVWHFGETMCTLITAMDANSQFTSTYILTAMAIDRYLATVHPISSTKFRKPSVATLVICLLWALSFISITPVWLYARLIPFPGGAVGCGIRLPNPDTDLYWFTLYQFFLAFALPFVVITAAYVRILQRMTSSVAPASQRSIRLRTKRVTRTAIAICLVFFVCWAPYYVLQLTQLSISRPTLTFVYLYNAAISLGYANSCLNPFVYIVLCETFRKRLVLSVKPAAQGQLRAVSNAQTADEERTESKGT
# T10 sequence (P41146 whole entry): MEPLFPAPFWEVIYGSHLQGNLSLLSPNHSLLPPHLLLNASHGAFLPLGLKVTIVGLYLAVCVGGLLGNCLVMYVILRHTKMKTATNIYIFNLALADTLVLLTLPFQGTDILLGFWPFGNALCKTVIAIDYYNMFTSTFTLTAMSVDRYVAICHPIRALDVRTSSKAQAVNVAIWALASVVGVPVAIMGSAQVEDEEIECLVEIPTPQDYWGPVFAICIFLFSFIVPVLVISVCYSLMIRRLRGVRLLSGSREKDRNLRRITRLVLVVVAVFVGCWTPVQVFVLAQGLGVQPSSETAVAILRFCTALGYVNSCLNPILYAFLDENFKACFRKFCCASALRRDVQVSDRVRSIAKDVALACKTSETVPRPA
# T2 sequence (P41145 whole entry): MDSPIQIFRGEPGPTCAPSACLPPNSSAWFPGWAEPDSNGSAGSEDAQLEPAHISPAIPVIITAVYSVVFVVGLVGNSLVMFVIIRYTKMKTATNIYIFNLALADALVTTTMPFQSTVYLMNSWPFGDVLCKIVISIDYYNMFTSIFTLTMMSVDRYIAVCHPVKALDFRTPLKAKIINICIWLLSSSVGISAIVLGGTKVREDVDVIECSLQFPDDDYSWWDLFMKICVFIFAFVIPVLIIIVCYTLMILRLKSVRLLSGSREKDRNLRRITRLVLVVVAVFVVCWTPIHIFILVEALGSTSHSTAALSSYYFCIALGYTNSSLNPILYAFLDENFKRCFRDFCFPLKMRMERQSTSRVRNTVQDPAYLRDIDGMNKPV
# T3 sequence (P41968 whole entry): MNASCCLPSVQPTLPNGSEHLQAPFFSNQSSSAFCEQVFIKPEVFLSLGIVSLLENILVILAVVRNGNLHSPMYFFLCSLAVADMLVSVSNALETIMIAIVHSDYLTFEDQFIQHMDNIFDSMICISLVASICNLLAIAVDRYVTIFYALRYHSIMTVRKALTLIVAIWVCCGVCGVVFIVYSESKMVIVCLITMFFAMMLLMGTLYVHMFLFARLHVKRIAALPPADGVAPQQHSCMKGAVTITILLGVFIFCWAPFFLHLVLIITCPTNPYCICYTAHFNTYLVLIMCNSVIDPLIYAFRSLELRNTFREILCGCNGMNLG
# T5 sequence (P33032 whole entry): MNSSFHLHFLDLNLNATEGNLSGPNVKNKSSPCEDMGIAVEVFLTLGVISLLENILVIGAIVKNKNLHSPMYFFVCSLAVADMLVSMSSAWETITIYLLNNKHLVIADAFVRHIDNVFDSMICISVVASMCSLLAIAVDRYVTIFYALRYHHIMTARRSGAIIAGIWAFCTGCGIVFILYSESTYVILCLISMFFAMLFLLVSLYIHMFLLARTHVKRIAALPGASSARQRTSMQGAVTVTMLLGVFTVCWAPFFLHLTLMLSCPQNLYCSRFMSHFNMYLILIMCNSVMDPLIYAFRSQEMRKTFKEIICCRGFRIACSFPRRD
# T8 sequence (P25103 whole entry): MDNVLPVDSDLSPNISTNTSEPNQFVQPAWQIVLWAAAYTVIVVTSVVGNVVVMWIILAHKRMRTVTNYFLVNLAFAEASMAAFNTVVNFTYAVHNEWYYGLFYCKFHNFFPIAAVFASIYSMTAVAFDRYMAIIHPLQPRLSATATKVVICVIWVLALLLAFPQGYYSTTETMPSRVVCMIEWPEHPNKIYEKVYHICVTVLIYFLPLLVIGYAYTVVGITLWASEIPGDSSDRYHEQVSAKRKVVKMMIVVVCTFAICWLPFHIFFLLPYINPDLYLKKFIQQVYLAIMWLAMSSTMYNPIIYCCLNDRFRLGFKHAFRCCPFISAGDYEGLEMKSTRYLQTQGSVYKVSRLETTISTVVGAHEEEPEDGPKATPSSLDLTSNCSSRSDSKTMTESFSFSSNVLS
# T1 sequence (P41143 whole entry): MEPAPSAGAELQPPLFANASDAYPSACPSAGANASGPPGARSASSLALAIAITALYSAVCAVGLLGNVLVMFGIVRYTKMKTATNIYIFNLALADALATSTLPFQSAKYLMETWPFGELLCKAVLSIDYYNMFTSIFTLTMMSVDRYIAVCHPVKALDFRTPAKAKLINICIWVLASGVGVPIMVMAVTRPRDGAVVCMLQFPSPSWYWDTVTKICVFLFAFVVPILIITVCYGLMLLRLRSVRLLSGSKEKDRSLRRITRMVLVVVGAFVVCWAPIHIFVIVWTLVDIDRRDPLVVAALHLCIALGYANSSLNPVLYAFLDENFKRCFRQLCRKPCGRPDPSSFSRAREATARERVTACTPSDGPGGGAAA
Compound,"A1: inhibition of radioligand binding, human δ-opioid (DOP) [1]","A2: inhibition of radioligand binding, human κ-opioid (KOP) [2]","A3: inhibition of radioligand binding, human melanocortin (MC3) [3]","A4: inhibition of radioligand binding, human melanocortin (MC4) [4]","A5: inhibition of radioligand binding, human melanocortin (MC5) [5]","A6: inhibition of radioligand binding, human melanin-concentrating hormone (MCH1) [6]","A7: inhibition of radioligand binding, human μ-opioid (MOP) [7]","A8: inhibition of radioligand binding, human neurokinin (NK1) [8]","A9: inhibition of radioligand binding, human neuropeptide Y (NPY-Y1) [9]","A10: inhibition of radioligand binding, human opioid (ORL1) [10]","A11: inhibition of radioligand binding, mouse urotensin (mUR2) [11]"
CSC1OC(COCc2ccc3ccccc3c2)C(O)C(OCc2ccc3ccccc3c2)C1NC(=O)CCNC(=N)N (stereo not drawn) [compound 319],− (“−” indicates less than 50% inhibition at 10 μM),− (“−” indicates less than 50% inhibition at 10 μM),− (“−” indicates less than 50% inhibition at 10 μM),+ (“+” indicates greater than 50% inhibition at 10 μM),+ (“+” indicates greater than 50% inhibition at 10 μM),− (“−” indicates less than 50% inhibition at 10 μM),− (“−” indicates less than 50% inhibition at 10 μM),+ (“+” indicates greater than 50% inhibition at 10 μM),− (“−” indicates less than 50% inhibition at 10 μM),− (“−” indicates less than 50% inhibition at 10 μM),− (“−” indicates less than 50% inhibition at 10 μM)
CSC1OC(COCc2ccc3ccccc3c2)C(O)C(OCc2ccc3ccccc3c2)C1NC(=O)CCCN (stereo not drawn) [compound 320],− (“−” indicates less than 50% inhibition at 10 μM),− (“−” indicates less than 50% inhibition at 10 μM),− (“−” indicates less than 50% inhibition at 10 μM),− (“−” indicates less than 50% inhibition at 10 μM),+ (“+” indicates greater than 50% inhibition at 10 μM),− (“−” indicates less than 50% inhibition at 10 μM),− (“−” indicates less than 50% inhibition at 10 μM),+ (“+” indicates greater than 50% inhibition at 10 μM),− (“−” indicates less than 50% inhibition at 10 μM),− (“−” indicates less than 50% inhibition at 10 μM),− (“−” indicates less than 50% inhibition at 10 μM)
CSC1OC(COCc2ccc3ccccc3c2)C(O)C(OCc2ccc3ccccc3c2)C1NC(=O)CCCNC(=N)N (stereo not drawn) [compound 321],− (“−” indicates less than 50% inhibition at 10 μM),− (“−” indicates less than 50% inhibition at 10 μM),+ (“+” indicates greater than 50% inhibition at 10 μM),+ (“+” indicates greater than 50% inhibition at 10 μM),+ (“+” indicates greater than 50% inhibition at 10 μM),+ (“+” indicates greater than 50% inhibition at 10 μM),− (“−” indicates less than 50% inhibition at 10 μM),+ (“+” indicates greater than 50% inhibition at 10 μM),− (“−” indicates less than 50% inhibition at 10 μM),− (“−” indicates less than 50% inhibition at 10 μM),− (“−” indicates less than 50% inhibition at 10 μM)
